Calls of active or inactive are those of the source. No cut-off for these calls is given here.
How the values were obtained:
[1] = system: RAW264.7; test: Inhibition of LPS-induced NFkappaB activation in mouse RAW264.7 cells assessed as inhibition of IkappaBalpha phosphorylation preincubated for 24 hrs followed by LPS stimulation for 3 hrs by Western blot analysis; format: cell-based; conditions: dose 1-10 µM, time 27.0 hrs
[2] = system: HT-29; test: Induction of apoptosis in human HT-29 cells assessed as late apoptotic cells at 1 uM incubated for 24 hrs by Annexin V-FITC/PI staining based flow cytometric analysis (reference value: 1.56 %); format: functional
[3] = system: Mus musculus; test: In vivo inhibition of NFkappaB activation in AOM/DSS-induced inflammatory bowel disease BALB/c mouse model assessed as inhibition of serum TNF-alpha production at 5 to 10 mg/kg, ip pretreated with AOM for 7 days further replaced with DSS for 7 days and repeated for 2 times followed by every 2 days compound treatment for […] starting from day 50 by ELISA; format: functional, organism-based; conditions: dose 5-10 mg/kg, time 21.0 day
[4] = system: HCT-116; test: Induction of apoptosis in human HCT-116 cells assessed as viable cells at 1 uM incubated for 24 hrs by Annexin V-FITC/PI staining based flow cytometric analysis (reference value: 88.8%); format: functional; conditions: read-out: Activity
[5] = system: HT-29; test: Induction of autophagic flux in human HT-29 cells assessed as increase in LC3I to LC3II conversion preincubated with 3-methyladenine for 1 hr followed by compound addition and measured after 24 hrs by Western blot analysis; format: functional, cell-based
[6] = system: HT-29; test: Induction of apoptosis in human HT-29 cells assessed as late apoptotic cells at 10 uM incubated for 24 hrs by Annexin V-FITC/PI staining based flow cytometric analysis (reference value: 1.56 %); format: functional
[7] = molecular target: T1, Nuclear factor NF-kappa-B complex (Homo sapiens) (UniProt Q00653+P19838+Q04206); test: Inhibition of TNF-alpha induced NFkappaB activation in human HT-29 cells assessed as inhibition of IL-8 production at 2 uM pretreated for 24 hrs followed by TNFalpha stimulation for 4 hrs by ELISA; format: cell-based; conditions: time 28.0 hrs
T1 sequence (P19838 whole entry, looked up): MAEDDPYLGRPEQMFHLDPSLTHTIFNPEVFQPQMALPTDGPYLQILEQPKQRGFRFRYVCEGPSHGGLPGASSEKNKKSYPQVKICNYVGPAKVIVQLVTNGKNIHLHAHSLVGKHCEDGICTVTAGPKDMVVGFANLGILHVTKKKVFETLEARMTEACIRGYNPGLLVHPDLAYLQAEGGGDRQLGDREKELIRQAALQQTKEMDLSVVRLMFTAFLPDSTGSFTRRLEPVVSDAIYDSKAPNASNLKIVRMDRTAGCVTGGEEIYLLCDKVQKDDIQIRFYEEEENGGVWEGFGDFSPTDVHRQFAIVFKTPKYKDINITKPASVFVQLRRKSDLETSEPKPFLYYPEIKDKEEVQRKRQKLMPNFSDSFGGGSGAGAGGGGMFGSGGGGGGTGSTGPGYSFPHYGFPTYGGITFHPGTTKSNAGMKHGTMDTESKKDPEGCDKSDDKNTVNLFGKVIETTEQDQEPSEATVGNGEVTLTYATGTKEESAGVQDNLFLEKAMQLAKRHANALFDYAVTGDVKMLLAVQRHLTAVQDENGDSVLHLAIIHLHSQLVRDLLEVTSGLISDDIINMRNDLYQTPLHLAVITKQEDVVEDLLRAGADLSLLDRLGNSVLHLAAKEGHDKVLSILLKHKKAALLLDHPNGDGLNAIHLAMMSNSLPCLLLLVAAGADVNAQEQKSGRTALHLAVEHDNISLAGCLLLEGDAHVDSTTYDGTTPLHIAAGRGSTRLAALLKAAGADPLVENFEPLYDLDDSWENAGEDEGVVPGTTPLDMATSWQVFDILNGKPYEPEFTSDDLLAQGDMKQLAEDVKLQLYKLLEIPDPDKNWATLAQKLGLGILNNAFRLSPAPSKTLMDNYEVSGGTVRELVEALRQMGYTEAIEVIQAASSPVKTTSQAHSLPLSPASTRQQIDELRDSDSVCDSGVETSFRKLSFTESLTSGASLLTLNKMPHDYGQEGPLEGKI
T1 sequence (Q00653 whole entry, looked up): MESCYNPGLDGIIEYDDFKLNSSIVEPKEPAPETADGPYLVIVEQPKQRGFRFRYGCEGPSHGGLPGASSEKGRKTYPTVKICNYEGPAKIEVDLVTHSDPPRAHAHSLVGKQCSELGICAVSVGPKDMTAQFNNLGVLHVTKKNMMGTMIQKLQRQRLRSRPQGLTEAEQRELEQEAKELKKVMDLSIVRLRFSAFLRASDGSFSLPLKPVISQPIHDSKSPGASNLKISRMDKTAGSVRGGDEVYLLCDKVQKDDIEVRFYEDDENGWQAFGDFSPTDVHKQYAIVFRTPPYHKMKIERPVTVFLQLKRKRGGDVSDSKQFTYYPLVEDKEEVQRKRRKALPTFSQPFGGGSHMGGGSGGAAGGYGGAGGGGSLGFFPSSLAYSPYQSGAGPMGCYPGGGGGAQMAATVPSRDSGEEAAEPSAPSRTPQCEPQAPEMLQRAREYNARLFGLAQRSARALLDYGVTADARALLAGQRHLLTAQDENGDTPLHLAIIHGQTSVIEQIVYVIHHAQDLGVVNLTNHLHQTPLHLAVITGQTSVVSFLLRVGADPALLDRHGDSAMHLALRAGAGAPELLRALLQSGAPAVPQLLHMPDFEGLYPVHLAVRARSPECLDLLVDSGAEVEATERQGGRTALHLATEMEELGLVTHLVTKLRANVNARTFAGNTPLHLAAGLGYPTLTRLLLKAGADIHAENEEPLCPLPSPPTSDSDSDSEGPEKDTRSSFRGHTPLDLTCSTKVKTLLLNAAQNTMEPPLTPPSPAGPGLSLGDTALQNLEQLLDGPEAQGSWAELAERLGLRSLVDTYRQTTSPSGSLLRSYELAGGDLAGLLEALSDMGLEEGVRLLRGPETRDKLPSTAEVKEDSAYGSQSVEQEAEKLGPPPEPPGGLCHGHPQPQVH
T1 sequence (Q04206 whole entry, looked up): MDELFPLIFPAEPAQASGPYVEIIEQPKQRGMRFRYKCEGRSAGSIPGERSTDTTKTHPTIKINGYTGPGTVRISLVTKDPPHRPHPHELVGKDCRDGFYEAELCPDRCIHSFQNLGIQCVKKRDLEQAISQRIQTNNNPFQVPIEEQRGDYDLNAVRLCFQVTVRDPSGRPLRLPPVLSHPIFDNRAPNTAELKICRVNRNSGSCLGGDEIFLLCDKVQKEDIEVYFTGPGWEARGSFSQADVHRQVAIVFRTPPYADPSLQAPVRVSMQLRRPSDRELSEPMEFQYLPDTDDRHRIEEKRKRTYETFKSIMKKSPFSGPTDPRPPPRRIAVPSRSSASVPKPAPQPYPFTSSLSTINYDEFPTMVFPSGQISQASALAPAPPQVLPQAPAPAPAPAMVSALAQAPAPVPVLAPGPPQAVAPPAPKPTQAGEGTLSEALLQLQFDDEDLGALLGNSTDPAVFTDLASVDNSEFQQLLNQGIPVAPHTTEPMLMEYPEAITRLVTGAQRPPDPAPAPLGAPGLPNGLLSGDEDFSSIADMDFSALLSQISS

[8] = Toxicity in athymic nude BALB/c mouse assessed as change in serum AKP level at 5 to 15 mg/kg, ip administered every other day and measured after 14 days; format: organism-based; conditions: in vivo, 336 h, dose 5-15 mg/kg, time 14 day
[9] = molecular target: T1, Nuclear factor NF-kappa-B complex (Homo sapiens); test: Inhibition of TNF-alpha induced NFkappaB activation in human HCT-116 cells assessed as inhibition of IkappaBalpha phosphorylation at 1 to 10 uM pretreated for 24 hrs followed by TNFalpha stimulation for 10 mins by Western blot analysis; format: cell-based; conditions: dose 1-10 µM, time 1450.0 min
[10] = Toxicity in athymic nude BALB/c mouse xenografted with human HCT-116 cells assessed as pathological changes in liver at 5 to 15 mg/kg, ip administered every other day and measured after 14 days by hematoxylin and eosin staining-based microscopic analysis; format: organism-based; conditions: in vivo, 336 h, dose 5-15 mg/kg, time 14 day
[11] = system: Mus musculus; test: Anti-inflammatory activity in AOM/DSS-induced BALB/c mouse model inflammatory bowel disease assessed as reduction in death rate at 5 to 10 mg/kg, ip pretreated with AOM for 7 days further replaced with DSS for 7 days and repeated for 2 times followed by every 2 days compound treatment for […] starting from day 50 and measured once a week; format: functional, organism-based; conditions: dose 5-10 mg/kg, time 21.0 day
[12] = system: HCT-116; test: Induction of cell cycle arrest in human HCT-116 cells assessed as decrease in P-cdc2 protein expression upto 10 uM incubated for 24 hrs by Western blot analysis; format: functional, cell-based
[13] = system: Mus musculus; test: Anti-inflammatory activity in AOM/DSS-induced BALB/c mouse model inflammatory bowel disease assessed as reduction in colon thickness at 5 to 10 mg/kg, ip pretreated with AOM for 7 days further replaced with DSS for 7 days and repeated for 2 times followed by every 2 days compound treatment for […] starting from day 50 and measured once a week; format: functional, organism-based; conditions: dose 5-10 mg/kg, time 21.0 day
[14] = system: HCT-116; test: Antitumor activity against human HCT-116 cells xenografted in athymic nude BALB/c mouse assessed as induction of autophagy by measuring reduction in p62 expression in tumor at 15 mg/kg, ip administered every other day and measured after 14 days by immunohistochemistry analysis; format: functional, organism-based; conditions: time 14.0 day
[15] = system: HCT-116; test: Induction of cell cycle arrest in human HCT-116 cells assessed as accumulation of cells at S phase at 1 uM by RNase/PI staining based flow cytometry analysis (reference value: 43.77 %); format: functional
[16] = system: Mus musculus; test: In vivo inhibition of NFkappaB activation in AOM/DSS-induced inflammatory bowel disease BALB/c mouse model assessed as inhibition of serum IL-8 production at 5 to 10 mg/kg, ip pretreated with AOM for 7 days further replaced with DSS for 7 days and repeated for 2 times followed by every 2 days compound treatment for […] starting from day 50 by ELISA; format: functional, organism-based; conditions: dose 5-10 mg/kg, time 21.0 day
[17] = system: Mus musculus; test: Anti-inflammatory activity in AOM/DSS-induced BALB/c mouse model inflammatory bowel disease assessed as reduction in body weight at 5 to 10 mg/kg, ip pretreated with AOM for 7 days further replaced with DSS for 7 days and repeated for 2 times followed by every 2 days compound treatment for […] starting from day 50 […]; format: functional, organism-based; conditions: dose 5-10 mg/kg, time 21.0 day
[18] = molecular target: T1, Nuclear factor NF-kappa-B complex (Homo sapiens); test: Inhibition of TNF-alpha induced NFkappaB activation in human HCT-116 cells assessed as inhibition of IL-8 production at 2 uM pretreated for 24 hrs followed by TNFalpha stimulation for 4 hrs by ELISA; format: cell-based; conditions: time 28.0 hrs
[19] = system: Mus musculus; test: In vivo inhibition of NFkappaB activation in athymic BALB/c mouse xenografted with human HT-29 cells assessed as reduction in MCP-1 gene expression in tumor at 5 to 15 mg/kg, ip administered every other day and measured after 14 days by qRT-PCR analysis; format: functional, organism-based; conditions: dose 5-15 mg/kg, time 14.0 day
[20] = system: Cell membrane; test: Disruption of mitochondrial membrane potential in human HCT-116 cells at 0.25 to 10 uM measured after 24 hrs by JC-1 staining based flow cytometry analysis; format: subcellular; conditions: dose 0.25-10 µM
[21] = system: HT-29; test: Inhibition of colony formation in human HT-29 cells at 0.25 to 10 uM incubated for 24 hrs and measured after 14 days by crystal violet staining based assay; format: functional, cell-based; conditions: dose 0.25-10 µM, time 14.0 day
[22] = system: HT-29; test: Induction of cell cycle arrest in human HT-29 cells assessed as decrease in P-cdc2 protein expression upto 10 uM incubated for 24 hrs by Western blot analysis; format: functional, cell-based
[23] = system: HCT-116; test: Induction of cell death in human HCT-116 cells at 0.5 to 10 uM pretreated with Z-VAD-FMK for 1 hr followed by compound addition and measured after 24 hrs by SRB assay; format: functional, cell-based; conditions: dose 0.5-10 µM
[24] = molecular target: T1, Nuclear factor NF-kappa-B complex (Homo sapiens); test: Inhibition of TNF-alpha induced NFkappaB activation in human HT-29 cells assessed as inhibition of p65 nuclear translocation at 10 uM pretreated for 6 hrs followed by TNFalpha stimulation for 15 mins by immunohistochemical analysis; format: cell-based; conditions: time 6.25 hrs
[25] = system: RAW264.7; test: Inhibition of LPS-induced NFkappaB activation in mouse RAW264.7 cells assessed as inhibition of NO production preincubated for 24 hrs followed by LPS stimulation for 24 hrs; format: cell-based; conditions: dose 0.125-1 µM, time 48.0 hrs
[26] = system: HCT-116; test: Induction of apoptosis in human HCT-116 cells assessed as increase in cleavage of PARP measured for 24 hrs by Western blot analysis; format: functional, cell-based; conditions: dose 0-10 µM
[27] = system: HCT-116; test: Cytotoxicity against human HCT-116 cells assessed as inhibition of cell growth incubated for 24 hrs by SRB assay; format: functional, cell-based; conditions: HCT-116, 24 h

## C[C@@H]1CC[C@H]2[C@H](C(=O)c3c(O)c([C@@]4(O)CC[C@@H](O)[C@H]5O[C@H]54)cn(O)c3=O)[C@H](C)C=C[C@@H]2C1
[1]
  inhibition: Dose-Dependent Effect
[2]
  Activity: 7.39%
[3]
  inhibition: Active
[4]
  viability at 1 µM: 32%
[5]
  Activity: Active
[6]
  Activity: 16.8%
[7]
  inhibition: Active
[8]
  Activity: Non-Toxic
[9]
  inhibition: Active
[10]
  Activity: Non-Toxic
[11]
  Activity: Active
[12]
  Activity: Active
[13]
  Activity: Active
[14]
  Activity: Active
[15]
  Activity: 43.65%
[16]
  inhibition: Active
[17]
  Activity: Active
[18]
  inhibition: Active
[19]
  inhibition: Active
[20]
  Activity: Active
[21]
  inhibition: Active
[22]
  Activity: Active
[23]
  inhibition: inactive
[24]
  inhibition: Active
[25]
  inhibition: Dose-Dependent Effect
[26]
  Activity: Dose-Dependent Effect
[27]
  IC50: 2800 nM
